Test results: patent publication US10695337B2, “Piperidin-4-yl azetidine derivatives as JAK1 inhibitors” (Incyte Corporation, priority 2010, dated 2020)

The compounds below were run against human JAK1 (a.a. 837-1142) (assay: In vitro JAK kinase assay (HTRF, phosphorylation of a biotinylated peptide), JAK1). Settings: measured at 1 mM ATP; JAK2 IC50 / JAK1 IC50.
Format: biochemical
Protocol: Compounds herein were tested for inhibitory activity of JAK targets according to the following in vitro assay described in Park et al., Analytical Biochemistry 1999, 269, 94-104. The catalytic domains of human JAK1 (a.a. 837-1142), Jak2 (a.a. 828-1132) and Jak3 (a.a. 781-1124) with an N-terminal His tag were expressed using baculovirus in insect cells and purified. The catalytic activity of JAK1, JAK2 or JAK3 was assayed by measuring the phosphorylation of a biotinylated peptide. The phosphorylated peptide was detected by homogenous time resolved fluorescence (HTRF). […] Reactions were carried out at room temperature for 1 hr and then stopped with 20 μL 45 mM EDTA, 300 nM SA-APC, 6 nM Eu-Py20 in assay buffer (Perkin Elmer, Boston, Mass.). Binding to the Europium labeled antibody took place for 40 minutes and HTRF signal was measured on a Fusion plate reader (Perkin Elmer, Boston, Mass.).

Row | Structure (SMILES) | IC50 Ratio JAK2/JAK1
1 | COc1ccc(C(=O)N2CCC(N3CC(CC#N)(n4cc(-c5ncnc6[nH]ccc56)cn4)C3)CC2)cc1C#N [Example 55, 5-[(4-{3-(cyanomethyl)-3-[4-(7H-pyrrolo[2,3-d]pyrimidin-4-yl)-1H-pyrazol-1-yl]azetidin-1-yl}piperidin-1-yl)carbonyl]-2-methoxybenzonitrile] | 7.5
2 | N#CCC1(n2cc(-c3ncnc4[nH]ccc34)cn2)CN(C2CCN(C(=O)c3c(F)c(F)cc(F)c3F)CC2)C1 [Example 56, {3-[4-(7H-pyrrolo[2,3-d]pyrimidin-4-yl)-1H-pyrazol-1-yl]-1-[1-(2,3,5,6-tetrafluorobenzoyl)piperidin-4-yl]azetidin-3-yl}acetonitrile] | 8.8
3 | N#CCC1(n2cc(-c3ncnc4[nH]ccc34)cn2)CN(C2CCN(C(=O)c3ccnc(C(F)(F)F)c3)CC2)C1 [Example 57, (3-[4-(7H-pyrrolo[2,3-d]pyrimidin-4-yl)-1H-pyrazol-1-yl]-1-{1-[2-(trifluoromethyl)isonicotinoyl]piperidin-4-yl}azetidin-3-yl)acetonitrile] | 3.3
4 | N#CCC1(n2cc(-c3ncnc4[nH]ccc34)cn2)CN(C2CCN(C(=O)c3ccc(F)c(O)c3)CC2)C1 [Example 58, {1-[1-(4-fluoro-3-hydroxybenzoyl)piperidin-4-yl]-3-[4-(7H-pyrrolo[2,3-d]pyrimidin-4-yl)-1H-pyrazol-1-yl]azetidin-3-yl} acetonitrile] | 5.0
5 | CN(C)c1ccc(C(=O)N2CCC(N3CC(CC#N)(n4cc(-c5ncnc6[nH]ccc56)cn4)C3)CC2)cc1C#N [Example 59, 5-[(4-{3-(cyanomethyl)-3-[4-(7H-pyrrolo[2,3-d]pyrimidin-4-yl)-1H-pyrazol-1-yl]azetidin-1-yl}piperidin-1yl)carbonyl]-2-(dimethylamino)benzonitrile] | 4.6
6 | CN(C)c1c(F)c(F)c(C(=O)N2CCC(N3CC(CC#N)(n4cc(-c5ncnc6[nH]ccc56)cn4)C3)CC2)c(F)c1F [Example 60, {1-{1-[4-(dimethylamino)-2,3,5,6-tetrafluorobenzoyl]piperidin-4-yl}-3-[4-(7H-pyrrolo[2,3-d]pyrimidin-4-yl)-1H-pyrazol-1-yl]azetidin-3-yl}acetonitrile] | 1.8
7 | N#CCC1(n2cc(-c3ncnc4[nH]ccc34)cn2)CN(C2CCN(C(=O)c3c(F)cncc3F)CC2)C1 [Example 61, {1-[1-(3,5-difluoroisonicotinoyl)piperidin-4-yl]-3-[4-(7H-pyrrolo[2,3-d]pyrimidin-4-yl)-1H-pyrazol-1-yl]azetidin-3-yl}acetonitrile] | 4.2
8 | N#CCC1(n2cc(-c3ncnc4[nH]ccc34)cn2)CN(C2CCN(C(=O)c3ccccc3F)CC2)C1 [Example 67, {1-[1-(2-fluorobenzoyl)piperidin-4-yl]-3-[4-(7H-pyrrolo[2,3-d]pyrimidin-4-yl)-1H-pyrazol-1-yl]azetidin-3-yl}acetonitrile] | 4.7
9 | N#CCC1(n2cc(-c3ncnc4[nH]ccc34)cn2)CN(C2CCN(C(=O)c3sc(C(F)(F)F)cc3O)CC2)C1 [Example 71, {1-{1-[3-hydroxy-5-(trifluoromethyl)-2-thienylcarbonyl]piperidin-4-yl}-3-[4-(7H-pyrrolo[2,3-d]pyrimidin-4-yl)-1H-pyrazol-1-yl]azetidin-3-yl}acetonitrile] | 4.4
10 | COc1cscc1C(=O)N1CCC(N2CC(CC#N)(n3cc(-c4ncnc5[nH]ccc45)cn3)C2)CC1 [Example 72, {1-{1-[(4-methoxy-3-thienyl)carbonyl]piperidin-4-yl}-3-[4-(7H-pyrrolo[2,3-d]pyrimidin-4-yl)-1H-pyrazol-1-yl]azetidin-3-yl} acetonitrile] | 6.6
11 | Cc1cc(C(=O)N2CCC(N3CC(CC#N)(n4cc(-c5ncnc6[nH]ccc56)cn4)C3)CC2)cs1 [Example 73, {1-{1-[(5-methyl-3-thienyl)carbonyl]piperidin-4-yl}-3-[4-(7H-pyrrolo[2,3-d]pyrimidin-4-yl)-1H-pyrazol-1-yl]azetidin-3-yl} acetonitrile] | 4.2
12 | COc1c(C(=O)N2CCC(N3CC(CC#N)(n4cc(-c5ncnc6[nH]ccc56)cn4)C3)CC2)csc1Cl [Example 74, {1-{1-[(5-chloro-4-methoxy-3-thienyl)carbonyl]piperidin-4-yl}-3-[4-(7H-pyrrolo[2,3-d]pyrimidin-4-yl)-1H-pyrazol-1-yl]azetidin-3-yl} acetonitrile] | 3.8
13 | N#CCC1(n2cc(-c3ncnc4[nH]ccc34)cn2)CN(C2CCN(C(=O)c3ccsc3Br)CC2)C1 [Example 75, {1-{1-[(2-bromo-3-thienyl)carbonyl]piperidin-4-yl}-3-[4-(7H-pyrrolo[2,3-d]pyrimidin-4-yl)-1H-pyrazol-1-yl]azetidin-3-yl}acetonitrile] | 3.4
14 | N#CCC1(n2cc(-c3ncnc4[nH]ccc34)cn2)CN(C2CCN(C(=O)c3sccc3Cl)CC2)C1 [Example 76, {1-{1-[(3-chloro-2-thienyl)carbonyl]piperidin-4-yl}-3-[4-(7H-pyrrolo[2,3-d]pyrimidin-4-yl)-1H-pyrazol-1-yl]azctidin-3-yl}acetonitrile] | 5.5
15 | N#CCC1(n2cc(-c3ncnc4[nH]ccc34)cn2)CN(C2CCN(C(=O)c3ccc(Cl)s3)CC2)C1 [Example 77, {1-{1-[(5-chloro-2-thienyl)carbonyl]piperidin-4-yl}-3-[4-(7H-pyrrolo[2,3-d]pyrimidin-4-yl)-1H-pyrazol-1-yl]azetidin-3-yl}acetonitrile] | 5.5
16 | Cc1ccsc1C(=O)N1CCC(N2CC(CC#N)(n3cc(-c4ncnc5[nH]ccc45)cn3)C2)CC1 [Example 78, {1-{1-[(3-methyl-2-thienyl)carbonyl]piperidin-4-yl}-3-[4-(7H-pyrrolo[2,3-d]pyrimidin-4-yl)-1H-pyrazol-1-yl]azetidin-3-yl}acetonitrile] | 5.4
17 | Cc1ccc(C(=O)N2CCC(N3CC(CC#N)(n4cc(-c5ncnc6[nH]ccc56)cn4)C3)CC2)s1 [Example 80, {1-{1-[(5-methyl-2-thienyl)carbonyl]piperidin-4-yl}-3-[4-(7H-pyrrolo[2,3-d]pyrimidin-4-yl)-1H-pyrazol-1-yl]azetidin-3-yl}acetonitrile] | 4.1
18 | COc1ccsc1C(=O)N1CCC(N2CC(CC#N)(n3cc(-c4ncnc5[nH]ccc45)cn3)C2)CC1 [Example 81, {1-{1-[(3-methoxy-2-thienyl)carbonyl]piperidin-4-yl}-3-[4-(7H-pyrrolo[2,3-d]pyrimidin-4-yl)-1H-pyrazol-1-yl]azetidin-3-yl}acetonitrile] | 4.2
19 | N#CCC1(n2cc(-c3ncnc4[nH]ccc34)cn2)CN(C2CCN(C(=O)c3ccc(C(F)(F)F)cc3F)CC2)C1 [Example 82, {1-{1-[2-fluoro-4-(trifluoromethyl)benzoyl]piperidin-4-yl}-3-[4-(7H-pyrrolo[2,3-d]pyrimidin-4-yl)-1H-pyrazol-1-yl]azetidin-3-yl} acetonitrile] | 5.3
20 | N#CCC1(n2cc(-c3ncnc4[nH]ccc34)cn2)CN(C2CCN(C(=O)c3c(F)cc(C#N)cc3F)CC2)C1 [Example 83, 4-[(4-{3-(cyanomethyl)-3-[4-(7H-pyrrolo[2,3-d]pyrimidin-4-yl)-1H-pyrazol-1-yl]azetidin-1-yl}piperidin-1-yl)carbonyl]-3,5-difluorobenzonitrile] | 5.8
21 | N#CCC1(n2cc(-c3ncnc4[nH]ccc34)cn2)CN(C2CCN(C(=O)c3ccc(O)c(Cl)c3)CC2)C1 [Example 84, {1-[1-(3-chloro-4-hydroxybenzoyl)piperidin-4-yl]-3-[4-(7H-pyrrolo[2,3-d]pyrimidin-4-yl)-1H-pyrazol-1-yl]azetidin-3-yl}acetonitrile] | 6.5
22 | N#CCC1(n2cc(-c3ncnc4[nH]ccc34)cn2)CN(C2CCN(C(=O)c3cccc4ccccc34)CC2)C1 [Example 87, {1-[1-(1-naphthoyl)piperidin-4-yl]-3-[4-(7H-pyrrolo[2,3-d]pyrimidin-4-yl)-1H-pyrazol-1-yl]azetidin-3-yl}acetonitrile] | 0.3
23 | N#CCC1(n2cc(-c3ncnc4[nH]ccc34)cn2)CN(C2CCN(C(=O)c3cnc4ccccc4c3)CC2)C1 [Example 88, {3-[4-(7H-pyrrolo[2,3-d]pyrimidin-4-yl)-1H-pyrazol-1-yl]-1-[1-(quinolin-3-ylcarbonyl)piperidin-4-yl]azetidin-3-yl}acetonitrile] | 0.9
24 | N#CCC1(n2cc(-c3ncnc4[nH]ccc34)cn2)CN(C2CCN(C(=O)c3ccc4ncccc4c3)CC2)C1 [Example 89, {3-[4-(7H-pyrrolo[2,3-d]pyrimidin-4-yl)-1H-pyrazol-1-yl]-1-[1-(quinolin-6-ylcarbonyl)piperidin-4-yl]azetidin-3-yl}acetonitrile] | 2.6
25 | N#CCC1(n2cc(-c3ncnc4[nH]ccc34)cn2)CN(C2CCN(C(=O)c3cc4ccccc4s3)CC2)C1 [Example 90, {1-[1-(1-benzothien-2-ylcarbonyl)piperidin-4-yl]-3-[4-(7H-pyrrolo[2,3-d]pyrimidin-4-yl)-1H-pyrazol-1-yl]azetidin-3-yl}acetonitrile] | 1.5
26 | N#CCC1(n2cc(-c3ncnc4[nH]ccc34)cn2)CN(C2CCN(C(=O)c3sc4cc(F)ccc4c3Cl)CC2)C1 [Example 91, {1-{1-[(3-chloro-6-fluoro-1-benzothien-2-yl)carbonyl]piperidin-4-yl}-3-[4-(7H-pyrrolo[2,3-d]pyrimidin-4-yl)-1H-pyrazol-1-yl]azetidin-3-yl}acetonitrile] | 1.7
